Results on 4 molecules are retold here after PMC10922308 (Cell chemical biology, 2023).

Assay type in all cases: cell-based
Assay [1] addresses T1, PIM1 (Homo sapiens, UniProt P11309).
A further assay has as its target PIM3 (Homo sapiens, UniProt Q86V86). Description: PROTAC degradation immunoblot in PC3 cells. A general note: A western blot detects proteins with antibodies after separation by electrophoresis.
Another assay deals with PIM2 (Homo sapiens, UniProt Q9P1W9). Description: PROTAC degradation immunoblot in PC3 cells.
In assay [2] the target is T1, PIM1. Kind of assay: PROTAC degradation immunoblot in PC3-dox-PIM1 cells.
The target in assay [3] is T1, PIM1. The assay is described as above. The source holds these as a separate data set.

T1 sequence (P11309 whole entry): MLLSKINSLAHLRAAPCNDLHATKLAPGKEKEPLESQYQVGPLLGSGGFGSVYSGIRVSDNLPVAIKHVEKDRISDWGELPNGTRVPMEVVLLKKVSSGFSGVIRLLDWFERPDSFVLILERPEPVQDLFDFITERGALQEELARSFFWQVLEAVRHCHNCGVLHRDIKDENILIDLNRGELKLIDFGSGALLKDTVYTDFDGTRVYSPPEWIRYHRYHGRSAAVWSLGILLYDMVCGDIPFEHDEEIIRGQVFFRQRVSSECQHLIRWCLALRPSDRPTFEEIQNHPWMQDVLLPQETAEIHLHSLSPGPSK
T1 sequence (P40337 whole entry partner): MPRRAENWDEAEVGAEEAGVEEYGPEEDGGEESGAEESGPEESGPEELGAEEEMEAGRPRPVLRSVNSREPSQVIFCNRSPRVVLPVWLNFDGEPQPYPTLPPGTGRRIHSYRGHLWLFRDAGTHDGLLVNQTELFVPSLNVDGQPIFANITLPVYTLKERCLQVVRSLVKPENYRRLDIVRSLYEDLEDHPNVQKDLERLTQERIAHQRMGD
Sequence of PIM2 (Q9P1W9 whole entry): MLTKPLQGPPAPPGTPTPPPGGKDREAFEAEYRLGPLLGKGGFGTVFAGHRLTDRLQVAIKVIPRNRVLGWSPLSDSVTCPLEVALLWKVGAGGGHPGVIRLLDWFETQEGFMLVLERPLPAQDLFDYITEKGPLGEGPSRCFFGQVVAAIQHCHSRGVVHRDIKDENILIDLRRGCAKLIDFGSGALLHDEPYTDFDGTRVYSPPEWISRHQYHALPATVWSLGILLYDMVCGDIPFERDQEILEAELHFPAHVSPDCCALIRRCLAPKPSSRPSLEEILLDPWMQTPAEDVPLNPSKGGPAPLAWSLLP
Sequence of PIM2 (P40337 whole entry partner): as the sequence (P40337 whole entry partner) above
Sequence of PIM3 (P40337 whole entry partner): as the sequence (P40337 whole entry partner) above

As to `Cc1ncsc1-c1ccc([C@H](C)NC(=O)[C@@H]2C[C@@H](O)CN2C(=O)[C@@H](NC(=O)CCCCCCC(=O)N2CCC(CNc3ccc4ncc(-c5cccc(OC(F)(F)F)c5)n4n3)CC2)C(C)(C)C)cc1` [SGI-1776-VHL-02, (2S,4R)-1-((S)-3,3-dimethyl-2-(8-oxo-8-(4-(((3-(3-(trifluoromethoxy)phenyl)imidazo[1,2-b]pyridazin-6-yl)amino)methyl)piperidin-1-yl)octanamido)butanoyl)-4-hydroxy-N-((S)-1-(4-(4-methylthiazol-5-yl)phenyl)ethyl)pyrrolidine-2-carboxamide], the “PROTAC degradation immunoblot in PC3 cells, with VH298, MG-132, MLN4924, cis-epi” value at PIM1 [1] came out at 0.75 µM. Also, the figures for the “PROTAC degradation immunoblot in PC3 cells” value at PIM3 and at PIM2 were 1.5 µM and 3.75 µM, respectively.

Consider `Cc1ncsc1-c1ccc([C@H](C)NC(=O)[C@@H]2C[C@@H](O)CN2C(=O)[C@@H](NC(=O)CCCCCCC(=O)N[C@@H]2CC(c3ccncc3NC(=O)c3ccc(F)c(-c4c(F)cccc4F)n3)C[C@H](C)C2)C(C)(C)C)cc1` (stereo partly drawn) [PIM447-VHL-01, N^1-((1S,5S)-3-(3-(6-(2,6-difluorophenyl)-5-fluoropicolinamido)pyridin-4-yl)-5-methylcyclohexyl)-N^8-((S)-1-((2S,4R)-4-hydroxy-2-(((S)-1-(4-(4-methylthiazol-5-yl)phenyl)ethyl)carbamoyl)pyrrolidin-1-yl)-3,3-dimethyl-1-oxobutan-2-yl)octanediamide], for which the “PROTAC degradation immunoblot in PC3 cells, with VH298, MG-132, MLN4924, cis-epi” value on PIM1 [1] was determined as 0.75 µM.

In the case of `Cc1ncsc1-c1ccc([C@H](C)NC(=O)[C@@H]2C[C@@H](O)CN2C(=O)[C@@H](NC(=O)CCOCCOCCN2CCC(CNc3ccc4ncc(-c5cccc(OC(F)(F)F)c5)n4n3)CC2)C(C)(C)C)cc1` [SGI-1776-VHL-01, (2S,4R)-1-((S)-3,3-dimethyl-2-(3-(2-(2-(4-(((3-(3-(trifluoromethoxy)phenyl)imidazo[1,2-b]pyridazin-6-yl)amino)methyl)piperidin-1-yl)ethoxy)ethoxy)propanamido)butanoyl)-4-hydroxy-N-((S)-1-(4-(4-methylthiazol-5-yl)phenyl)ethyl)pyrrolidine-2-carboxamide], on PIM1 [2], the “PROTAC degradation immunoblot in PC3-dox-PIM1 cells (hook effect seen)” value was 0.75 µM.

As for `Cc1ncsc1-c1ccc([C@H](C)NC(=O)[C@@H]2C[C@@H](O)CN2C(=O)[C@@H](NC(=O)CCCCCCC(=O)N[C@H]2CCCN(c3c(/C=C4\SC(=O)NC4=O)cccc3-c3ccccc3)C2)C(C)(C)C)cc1` [AZD1208-VHL-01, N^1-((S)-1-(3-((Z)-(2,4-dioxothiazolidin-5-ylidene)methyl)-[1,1’-biphenyl]-2-yl)piperidin-3-yl)-N^8-((S)-1-((2S,4R)-4-hydroxy-2-(((S)-1-(4-(4-methylthiazol-5-yl)phenyl)ethyl)carbamoyl)pyrrolidin-1-yl)-3,3-dimethyl-1-oxobutan-2-yl)octanediamide], the “PROTAC degradation immunoblot in PC3-dox-PIM1 cells” value on PIM1 [3] was 6.25 µM.
